Patent US5614370A, “Assay to identify human C5a antagonists and agonists” (Merck & Co., Inc., priority 1994, dated 1997)
“Also recorded” adds a separate entry of the source. Where two headings read alike, the source gives them in different places. One block for each molecule: values may come before it. Non-standard residues stand in square brackets, D forms with d. Residues, ends and D or L forms follow the SMILES beside them. 1Nal = N[C@@H](Cc1cccc2ccccc12)C(=O)O; NMeF = CN[C@@H](Cc1ccccc1)C(=O)O; Cha = N[C@@H](CC1CCCCC1)C(=O)O; dCha = N[C@H](CC1CCCCC1)C(=O)O

Experiments:
human neutrophils [1] = assay: Degranulation, myeloperoxidase (MPO) release from human neutrophils (agonism); assay type: cell-based; settings: for EC50: MPO release, read-out: ED50 for degranulation; for EC50/IC50 (degranulation/binding): ratio degranulation EC50 to binding IC50
Procedure: (§1) FIG. 5A and 5B. Degranulation and Ca^2+ responses to the hexapeptides. […] The ED50 's for the degranulation are: C5a, 0.5 nM; C028, 0.2 μM; C026, 1 μM. C5a, maximally, released 57% of the total cellular content of MPO. The ability of these molecules to elicite a Ca^2+ -flux is shown in B. The concentrations used for C028 (10 μM), C026 (10 μM), C061 (100 μM) are those which produce a maximal flux. A saturating concentration was also used for C5a (1 nM).
This assay was performed on human neutrophils as previously reported and it is a measure of C5a or peptide induced exocytosis (Rollins, T. E. and Springer, M. S. (1985) J. Biol. Chem. 260, 7157-7160).
The functional properties of two of the peptides, C026, and C028, were originally described by Mollison et. al (Mollison, K. W., Krause, R. A., Fey, T. A., Miller, L., Wiedeman, P. e., Kawai, M., Lane, B., Luly, J. R. and Carter, G. W. (1992) FASEB J. 6, A2058). […] We have reinvestigated the degranulating activities of these peptides as measured by the release of myeloperoxidase (MPO) from human neutrophils. […] The EC50 /IC50 (degranulation/binding) for C028 is 8, the same as that measured for C5a (Table II, FIG. 5A). […] However, the difference in activity between C026 and C028 is significant and reproducible. Since the structural difference between the two is the substitution of an aromatic for an aliphatic residue (Phe for Cha) we chose to make additional changes at position 5 which further increased aromaticity. […] To further examine whether the differences in activity between the peptides reflects the increased aromaticity we synthesized a molecule with Leu, an aliphatic amino acid, at position 5 (C068, Table II).

human neutrophils [2] = assay: Ligand induced Ca2+ flux (Indo-1 fluorescence); assay type: cell-based; settings: FIG. 5B
Procedure: as §1
Ligand induced Ca^2+ fluxes were measured by following the change in Indo-1 induced fluorescence on a FACS analyzer as previously described (Van Riper, G., Siciliano, S. J., Fischer, P. A., Meurer, R., Springer, M. S. and Rosen, H. (1993) J. Exp. Med. 177, 851-856.).
FIG. 5B compares the maximal effects of each peptide (10-100 μM) with the response induced by C5a (1 nM).

C5a receptor = biological target: T1, C5a receptor (Homo sapiens, UniProt P21730); assay: Competition binding against 125I-labeled intact C5a on human neutrophil (PMN) membranes
T1 construct: followed by a 20 μL aliquot of neutrophil membrane; endogenous in cells
T1 sequence (P21730 1-350): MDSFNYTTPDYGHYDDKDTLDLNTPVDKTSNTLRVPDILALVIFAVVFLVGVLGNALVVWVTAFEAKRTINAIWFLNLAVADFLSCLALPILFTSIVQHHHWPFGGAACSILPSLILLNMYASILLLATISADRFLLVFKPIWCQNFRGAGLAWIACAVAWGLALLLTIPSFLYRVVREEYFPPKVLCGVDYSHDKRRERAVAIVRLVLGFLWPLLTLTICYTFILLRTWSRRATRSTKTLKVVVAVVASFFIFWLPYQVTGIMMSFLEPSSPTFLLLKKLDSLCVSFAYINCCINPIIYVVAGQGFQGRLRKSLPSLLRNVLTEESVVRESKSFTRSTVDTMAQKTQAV
Source text: The affinity of these peptides is shown, for example, by radiolabeling intact C5a, and using the unlabeled peptide to compete the labeled C5a from C5a receptor binding sites on cellular membranes. Preparations of polymorphonuclear leukocytes (PMN's) are known to express the C5a receptor, (inhibition of the chemotactic response to C5a of this type of cell is one desirable utility for compounds identified by the instant assay). One method for preparing these membranes is described by Rollins, T. E. et al., [J. Biol. Chem. 264:520-526 (1988); see also U.S. Pat. No. 5,177,190, herein incorporated by reference as a method for isolating and purifying C5a receptor]. Briefly, this involves isolating PMN's in large quantity, disrupting these cells and obtaining the membrane fraction by centrifugation. Protein assay of the membrane preparation allows for standardization of the amount of protein added in any set of membrane binding experiments.
In FIG. 1, unlabeled C013 is used to compete with ^125 I-labeled C5a. […] In FIG. 2, the C013 is ^125 I labeled. Unlabeled C5a and unlabeled C013 are each used to compete the labeled C013 from C5a binding sites on the membranes. […] In FIG. 3a, ^125 I-C5a is competed from its binding site by unlabeled C064 and unlabeled, natural C5a (as opposed to recombinant C5a, which, however, may also obviously may be used for these purposes). […] In FIG. 3b, the inverse experiment is shown, wherein ^125 I-C064 is displaced by unlabeled C064 and unlabeled nC5a.
Hexapeptides within this class differing only at position X have similar affinities for the C5a receptor. As measured in competition binding experiments against ^125 I-C5a on human neutrophil membranes their IC50 's varied by only a factor of 3, from 25 to 80 nM (Table II):
^2 Binding experiments were carried out with human neutrophil
Binding is initiated by an addition of 20 μL of PMN membrane (typically 0.5 μg of protein) to each tube. After incubation for 90 min. at room temperature 2 ml of 0.05 M HEPES, pH 7.2, containing 0.5% BSA are added to the tube, the contents vortexed and filtered over a Whatman GF/C filter which has been soaked in 0.3% polyethylenimine. An additional 2 ml of buffer are added to the tube and used to wash the filter. All of the test samples are dissolved in DMSO, another water miscible organic solvent, or in an aqueous solvent. Non-specific background was determined by inclusion of a 100-fold excess of unlabeled C5a.
The percent inhibition is calculated according to the following formula: [formula]
Iodination of C5a was carded out with the use of chloramine T. (Rollins, T.E., and Springer, M.S. (1985) J. Biol. Chem. 260, 7157-7160). […] Concentrations of C5a were determined by amino acid analysis and by RIA (Amersham Corp.). Membranes were prepared from human PMN as described by Rollins, T.E., Sciliano, S and Springer, M.S., J. Biol Chem 264 520-526 (1988).

[3] = maximal effects, peptide 10-100 μM vs 1 nM C5a
[4] = Table II, human neutrophil membranes, competition against 125I-C5a, read-out: Binding IC50

- EC50 (human neutrophils [1]; FIG. 5A): 1000 nM
- EC50/IC50 (degranulation/binding) (human neutrophils [1]): 20
- IC50 (C5a receptor; [4]): 50 nM
Molecule: CN[C@@H](Cc1ccccc1)C(=O)N[C@@H](CCCCN)C(=O)N1CCC[C@H]1C(=O)N[C@H](CC1CCCCC1)C(=O)N[C@@H](Cc1ccccc1)C(=O)N[C@H](CCCNC(=N)N)C(=O)O [C026, NMeF--K--P-dCha-F-dR] (H-[NMeF]KP[dCha]F[dR]-OH)
- degranulating activity in words (human neutrophils [1]; FIG. 5A): partial agonist for degranution induction; also recorded: retains substantial degranulating activity
- MPO release relative to the maximal release produced by C5a or C028 (human neutrophils [1]; maximal effect, FIG. 5A): 50%
- concentration which produces a maximal Ca2+ flux (human neutrophils [2]): 10 µM
- Ca2+ response relative to C028 and C5a (human neutrophils [2]; [3]): 50%

- EC50 (human neutrophils [1]; FIG. 5A): 200 nM
- EC50/IC50 (degranulation/binding) (human neutrophils [1]): 8
- IC50 (C5a receptor; [4]): 25 nM
Molecule: CN[C@@H](Cc1ccccc1)C(=O)N[C@@H](CCCCN)C(=O)N1CCC[C@H]1C(=O)N[C@H](CC1CCCCC1)C(=O)N[C@@H](CC1CCCCC1)C(=O)N[C@H](CCCNC(=N)N)C(=O)O [C028, MePhe Lys Pro dCha Cha dArg] (H-[NMeF]KP[dCha][Cha][dR]-OH)
- degranulating activity in words (human neutrophils [1]; FIG. 5A): full agonist for degranulation
- concentration which produces a maximal Ca2+ flux (human neutrophils [2]): 10 µM
- Ca2+ response in words (human neutrophils [2]; [3]): comparable elevations in Ca^2+ level

- binding affinity in words (C5a receptor): excellent ability to inhibit C5a binding
Molecule: CN[C@@H](Cc1ccccc1)C(=O)N[C@@H](CCCCN)C(=O)N1CCC[C@H]1C(=O)N[C@H](CC1CCCCC1)C(=O)N[C@@H](Cc1c[nH]c2ccccc12)C(=O)N[C@H](CCCNC(=N)N)C(=O)O [C089]
- degranulating activity in words (human neutrophils [1]; FIG. 5A): totally devoid of degranulating activity
- Ca2+ response in words (human neutrophils [2]; [3]): fails to stimulate a detectable change in Ca^2+ level

- IC50 (C5a receptor; [4]): 80 nM
Molecule: CN[C@@H](Cc1ccccc1)C(=O)N[C@@H](CCCCN)C(=O)N1CCC[C@H]1C(=O)N[C@H](CC1CCCCC1)C(=O)N[C@@H](Cc1cccc2ccccc12)C(=O)N[C@H](CCCNC(=N)N)C(=O)O [C061] (H-[NMeF]KP[dCha][1Nal][dR]-OH)
- degranulating activity in words (human neutrophils [1]; FIG. 5A): totally devoid of degranulating activity
- concentration which produces a maximal Ca2+ flux (human neutrophils [2]): 100 µM
- Ca2+ response in words (human neutrophils [2]; [3]): only a very small increase in intracellular Ca^2+ levels; also recorded: small increase in the level of intracellular Ca^2+

- Ki (C5a receptor): 8 nM
Molecule: CC(C)C[C@H](NC(=O)[C@H](CC1CCCCC1)NC(=O)[C@H](CC1CCCCC1)NC(=O)[C@H](C)NC(=O)[C@H](CCCCN)NC(=O)[C@H](Cc1ccccc1)NC(=O)[C@@H](N)Cc1ccc(O)cc1)C(=O)N[C@H](Cc1ccccc1)C(=O)N[C@@H](CCCNC(=N)N)C(=O)O [C009, Tyr Phe Lys Ala Cha Cha Leu dPhe Arg] (H-YFKA[Cha][Cha]L[dF]R-OH)

- EC50 (human neutrophils [1]; FIG. 5A): 0.5 nM
- EC50/IC50 (degranulation/binding) (human neutrophils [1]): 8
- IC50 (C5a receptor; [4]): 0.03 nM
- IC50 (C5a receptor; labeled ligand 125I-C5a, read-out: IC50 exhibited by the unlabeled ligand): 0.066 nM
B1: C5a: 74 amino acid protein derived from the fifth component of serum complement during complement activation (protein, UniProt P01031 678-751, looked up)
C5a anaphylatoxin: TLQKKIEEIAAKYKHSVVKKCCYDGACVNNDETCEQRAARISLGPRCIKAFTECCVVASQLRANISHKDMQLGR
modifications: C5a anaphylatoxin
- release of total cellular MPO (human neutrophils [1]; 0.4 nM C5a or 8 nM IL-8, cells without C089): 22%
- maximal release of total cellular content of MPO (human neutrophils [1]; maximal, FIG. 5A): 57%
- Ca2+ response in words (human neutrophils [2]; [3]): comparable elevations in Ca^2+ level
